Where two headings read alike, the source gives them in different places.
How the values were obtained:
Assay in all cases: Test B pre-/postemergence plant response
Format in all cases: in vivo
[1] = tested on: johnsongrass (Sorghum halepense); conditions: Sorghum halepense, read-out: Plant response rating, Johnsongrass
Summary of the method: (§1)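 Seeds were sown in loam soil/sand blend and treated preemergence with compound in non-phytotoxic solvent mixture containing surfactant; postemergence sprays, same formulation, went onto plants 2 to 18 cm (1- to 4-leaf stage) in peat-based planting medium. Greenhouse 13 to 15 days, then visual rating versus untreated controls, 0 (no effect) to 100 (complete control).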

kochia (Kochia scoparia) = conditions: for pest or weed control at 31 g/ha: 31 g ai/ha; for pest or weed control at 62 g/ha: 62 g ai/ha; for pest or weed control at 125 g/ha: 125 g ai/ha
Summary of the method: as §1

[2] = tested on: pigweed (Amaranthus retroflexus); conditions: for pest or weed control at 31 g/ha: 31 g ai/ha; for pest or weed control at 62 g/ha: 62 g ai/ha; for pest or weed control at 125 g/ha: 125 g ai/ha
Summary of the method: as §1

[3] = tested on: ragweed (common ragweed, Ambrosia elatior); conditions: for pest or weed control at 31 g/ha: 31 g ai/ha; for pest or weed control at 62 g/ha: 62 g ai/ha; for pest or weed control at 125 g/ha: 125 g ai/ha
Summary of the method: as §1

soybean (Glycine max) = conditions: for plant injury at 31 g/ha: 31 g ai/ha; for plant injury at 62 g/ha: 62 g ai/ha; for plant injury at 125 g/ha: 125 g ai/ha
Summary of the method: as §1

[4] = tested on: velvetleaf (Abutilon theophrasti); conditions: for pest or weed control at 31 g/ha: 31 g ai/ha; for pest or weed control at 62 g/ha: 62 g ai/ha; for pest or weed control at 125 g/ha: 125 g ai/ha
Summary of the method: as §1

[5] = tested on: woolly cupgrass (Eriochloa villosa); conditions: for pest or weed control at 31 g/ha: 31 g ai/ha; for pest or weed control at 62 g/ha: 62 g ai/ha; for pest or weed control at 125 g/ha: 125 g ai/ha
Summary of the method: as §1

[6] = Bassia scoparia, pre-emergence, Preemergence, scale 0 to 100 (0 no effect, 100 complete control), read-out: Plant response rating, Kochia
[7] = Preemergence, 250 g ai/ha, 0 to 100 scale
[8] = Amaranthus retroflexus, pre-emergence, Preemergence, scale 0 to 100 (0 no effect, 100 complete control), read-out: Plant response rating, Pigweed
[9] = Ambrosia artemisiifolia, pre-emergence, 360 h, Preemergence, scale 0 to 100 (0 no effect, 100 complete control), read-out: Plant response rating, Ragweed
[10] = Glycine max, pre-emergence, Preemergence, scale 0 to 100 (0 no effect, 100 complete control), read-out: Plant response rating, Soybean
[11] = Abutilon theophrasti, pre-emergence, 360 h, Preemergence, scale 0 to 100 (0 no effect, 100 complete control), read-out: Plant response rating, Velvetleaf
[12] = Eriochloa villosa, pre-emergence, Preemergence, scale 0 to 100 (0 no effect, 100 complete control), read-out: Plant response rating, Cupgrass, Woolly

In the case of COCCn1c(-c2cc(F)cc(F)c2)ncc(C(=O)C2=C(O)C3CCC(C3)C2=O)c1=O (stereo not shown) [Compound 243, 2-(3,5-difluorophenyl)-5-[(2-hydroxy-4-oxobicyclo[3.2.1]oct-2-en-3-yl)carbonyl]-3-(2-methoxyethyl)-4(3H)-pyrimidinone], the pest or weed control at 250 g/ha ([1]; post-emergence, Postemergence, 250 g ai/ha, scale 0 to 100 (0 no effect, 100 complete control), 13 to 15 days) was 100%, the pest or weed control at 31 g/ha ([1]; pre-emergence, Preemergence, 31 g ai/ha, scale 0 to 100 (0 no effect, 100 complete control)) was 70% and the pest or weed control at 62 g/ha ([1]; pre-emergence, Preemergence, 62 g ai/ha, scale 0 to 100 (0 no effect, 100 complete control)) was 95%. The pest or weed control at 125 g/ha ([1]; pre-emergence, Preemergence, 125 g ai/ha, scale 0 to 100, 0 no effect, 100 complete control) was 95%, the pest or weed control at 31 g/ha (kochia (Kochia scoparia); Bassia scoparia, post-emergence, Postemergence, 0 to 100 scale (0 no effect, 100 complete control), read-out: Plant response rating, Kochia) was 85% and the pest or weed control at 62 g/ha (kochia (Kochia scoparia); Bassia scoparia, post-emergence, Postemergence, scale 0 to 100 (0 no effect, 100 complete control), read-out: Plant response rating, Kochia) was 95%. The pest or weed control at 125 g/ha (kochia (Kochia scoparia); Bassia scoparia, post-emergence, Postemergence, scale 0 (no effect) to 100 (complete control), 13 to 15 days, read-out: Plant response rating, Kochia) was 100%, the pest or weed control at 250 g/ha (kochia (Kochia scoparia); Bassia scoparia, post-emergence, Postemergence, 250 g ai/ha, scale 0 to 100 (0 no effect, 100 complete control), 13 to 15 days, read-out: Plant response rating, Kochia) was 100% and the pest or weed control at 31 g/ha (kochia (Kochia scoparia); [6]) was 15%. The pest or weed control at 62 g/ha (kochia (Kochia scoparia); [6]) was 20%, the pest or weed control at 125 g/ha (kochia (Kochia scoparia); Bassia scoparia, pre-emergence, Preemergence, scale 0 to 100, 0 no effect, 100 complete control, read-out: Plant response rating, Kochia) was 90% and the “Kochia plant response rating” value (kochia (Kochia scoparia); [7]) was 100. For the same compound, the pest or weed control at 31 g/ha ([2]; Amaranthus retroflexus, post-emergence, Postemergence, 0 to 100 scale (0 no effect, 100 complete control), read-out: Plant response rating, Pigweed) was 85%, the pest or weed control at 62 g/ha ([2]; Amaranthus retroflexus, post-emergence, Postemergence, scale 0 to 100 (0 no effect, 100 complete control), read-out: Plant response rating, Pigweed) was 100% and the pest or weed control at 125 g/ha ([2]; Amaranthus retroflexus, post-emergence, Postemergence, scale 0 (no effect) to 100 (complete control), 13 to 15 days, read-out: Plant response rating, Pigweed) was 100%. The pest or weed control at 250 g/ha ([2]; Amaranthus retroflexus, post-emergence, Postemergence, 250 g ai/ha, scale 0 to 100 (0 no effect, 100 complete control), 13 to 15 days, read-out: Plant response rating, Pigweed) was 100%, the pest or weed control at 31 g/ha [2, 8] was 75% and the pest or weed control at 62 g/ha [2, 8] was 98%. For the same compound, the pest or weed control at 125 g/ha ([2]; Amaranthus retroflexus, pre-emergence, Preemergence, scale 0 to 100, 0 no effect, 100 complete control, read-out: Plant response rating, Pigweed) was 100%, the “Pigweed plant response rating” value [2, 7] was 100 and the pest or weed control at 31 g/ha ([3]; Ambrosia artemisiifolia, post-emergence, 360 h, Postemergence, 0 to 100 scale (0 no effect, 100 complete control), read-out: Plant response rating, Ragweed) was 90%. It also gave a pest or weed control at 62 g/ha ([3]; Ambrosia artemisiifolia, post-emergence, 360 h, Postemergence, scale 0 to 100 (0 no effect, 100 complete control), read-out: Plant response rating, Ragweed) of 95%, a pest or weed control at 125 g/ha ([3]; Ambrosia artemisiifolia, post-emergence, 360 h, Postemergence, scale 0 (no effect) to 100 (complete control), 13 to 15 days, read-out: Plant response rating, Ragweed) of 98% and a pest or weed control at 250 g/ha ([3]; Ambrosia artemisiifolia, post-emergence, 360 h, Postemergence, 250 g ai/ha, scale 0 to 100 (0 no effect, 100 complete control), 13 to 15 days, read-out: Plant response rating, Ragweed) of 100%. For the same compound, the pest or weed control at 31 g/ha [3, 9] was 85%, the pest or weed control at 62 g/ha [3, 9] was 95% and the pest or weed control at 125 g/ha ([3]; Ambrosia artemisiifolia, pre-emergence, 360 h, Preemergence, scale 0 to 100, 0 no effect, 100 complete control, read-out: Plant response rating, Ragweed) was 98%. The “Ragweed plant response rating” value [3, 7] was 98, the plant injury at 31 g/ha (soybean (Glycine max); Glycine max, post-emergence, Postemergence, 0 to 100 scale (0 no effect, 100 complete control), read-out: Plant response rating, Soybean) was 95% and the plant injury at 62 g/ha (soybean (Glycine max); Glycine max, post-emergence, Postemergence, scale 0 to 100 (0 no effect, 100 complete control), read-out: Plant response rating, Soybean) was 98%. It also gave a plant injury at 125 g/ha (soybean (Glycine max); Glycine max, post-emergence, Postemergence, scale 0 (no effect) to 100 (complete control), 13 to 15 days, read-out: Plant response rating, Soybean) of 100%, a plant injury at 250 g/ha (soybean (Glycine max); Glycine max, post-emergence, Postemergence, 250 g ai/ha, scale 0 to 100 (0 no effect, 100 complete control), 13 to 15 days, read-out: Plant response rating, Soybean) of 100% and a plant injury at 31 g/ha (soybean (Glycine max); [10]) of 65%. For the same compound, the plant injury at 62 g/ha (soybean (Glycine max); [10]) was 75%, the plant injury at 125 g/ha (soybean (Glycine max); Glycine max, pre-emergence, Preemergence, scale 0 to 100, 0 no effect, 100 complete control, read-out: Plant response rating, Soybean) was 85% and the “Soybean plant response rating” value (soybean (Glycine max); [7]) was 95. It also gave a pest or weed control at 31 g/ha ([4]; Abutilon theophrasti, post-emergence, 360 h, Postemergence, 0 to 100 scale (0 no effect, 100 complete control), read-out: Plant response rating, Velvetleaf) of 100%, a pest or weed control at 62 g/ha ([4]; Abutilon theophrasti, post-emergence, 360 h, Postemergence, scale 0 to 100 (0 no effect, 100 complete control), read-out: Plant response rating, Velvetleaf) of 100% and a pest or weed control at 125 g/ha ([4]; Abutilon theophrasti, post-emergence, 360 h, Postemergence, scale 0 (no effect) to 100 (complete control), 13 to 15 days, read-out: Plant response rating, Velvetleaf) of 100%. It also gave a pest or weed control at 250 g/ha ([4]; Abutilon theophrasti, post-emergence, 360 h, Postemergence, 250 g ai/ha, scale 0 to 100 (0 no effect, 100 complete control), 13 to 15 days, read-out: Plant response rating, Velvetleaf) of 100%, a pest or weed control at 31 g/ha [4, 11] of 100% and a pest or weed control at 62 g/ha [4, 11] of 100%. For the same compound, the pest or weed control at 125 g/ha ([4]; Abutilon theophrasti, pre-emergence, 360 h, Preemergence, scale 0 to 100, 0 no effect, 100 complete control, read-out: Plant response rating, Velvetleaf) was 100%, the “Velvetleaf plant response rating” value [4, 7] was 100 and the pest or weed control at 31 g/ha ([5]; Eriochloa villosa, post-emergence, Postemergence, 0 to 100 scale (0 no effect, 100 complete control), read-out: Plant response rating, Cupgrass, Woolly) was 95%. The pest or weed control at 62 g/ha ([5]; Eriochloa villosa, post-emergence, Postemergence, scale 0 to 100 (0 no effect, 100 complete control), read-out: Plant response rating, Cupgrass, Woolly) was 95%, the pest or weed control at 125 g/ha ([5]; Eriochloa villosa, post-emergence, Postemergence, scale 0 (no effect) to 100 (complete control), 13 to 15 days, read-out: Plant response rating, Cupgrass, Woolly) was 100% and the pest or weed control at 250 g/ha ([5]; Eriochloa villosa, post-emergence, Postemergence, 250 g ai/ha, scale 0 to 100 (0 no effect, 100 complete control), 13 to 15 days, read-out: Plant response rating, Cupgrass, Woolly) was 100%. For the same compound, the pest or weed control at 31 g/ha [5, 12] was 75%, the pest or weed control at 62 g/ha [5, 12] was 95% and the pest or weed control at 125 g/ha ([5]; Eriochloa villosa, pre-emergence, Preemergence, scale 0 to 100, 0 no effect, 100 complete control, read-out: Plant response rating, Cupgrass, Woolly) was 95%. The “Cupgrass, Woolly plant response rating” value [5, 7] was 100.
